Assay results from patent publication US20130102499A1, “METHOD FOR DETERMINATION OF ACTIVITY OF MITOCHONDRIAL DNA POLYMERASE OF FALCIPARUM MALARIA, AND METHOD FOR SCREENING FOR ANTI-MALARIA COMPOUND” (OCHANOMIZU UNIVERSITY, priority 2010, published 2013).

Tests used:
[1] = test system: DNA polymerase γ-like enzyme; conditions: Non-patent Document 5; cited from earlier work
[2] = test system: PFF1225c (C1 fragment), mitochondrial DNA polymerase; assay: DNA polymerase activity measurement of PFF1225c (C1 fragment), sensitivity to inhibitors; format: biochemical, Plasmodium falciparum; conditions: for inhibition action to the DNA polymerase activity: FIG. 12a, FIG. 13a
Method: When a ^3H amount taken in a DNA chain is measured with a liquid scintillation counter, the pigment of an iron ion causes quenching and an accurate measurement thus cannot be attained. Quenching is classified into three types such as chemical quenching, oxygen quenching, and coloration quenching, and calculation efficiency of a liquid scintillation counter decreases. The case of ^3H being a soft β ray particularly becomes a problem, and coloration quenching becomes a problem in the case of an iron ion. Thus, gallic acid that forms a complex with iron was used and gallic acid iron that is a purple complex was formed. […] The protocol in the case of adding an iron ion is shown below.
In order to prevent oxidation of iron, the reaction solution was exposed to a nitrogen gas for 30 minutes to be degassed.
The reaction solution obtained by adding 50 mM Tris-HCl (pH 7.5), 1 mM dTTP, 40 nM PolydA-dT12, and 10 mM FeCl2 and adjusted to be the total amount of 20 μl with degassed distilled water (DW). […] After the incubation, an iron ion was chelated by adding 10 μl of 100 mM EDTA to terminate the reaction. PicoGreen™ (Molecular Probes), which specifically binds to double-stranded DNA, was used in order to quantitatively determine an amount of DNA synthesized by the DNA polymerase.

[3] = test system: apicoplast DNA polymerase (POMUPfprex); conditions: reported; cited from earlier work
[4] = biological target: T1, mouse DNA polymerase α (Mus musculus, UniProt P33609); conditions: already reported; cited from earlier work
T1 sequence (P33609 1-1465): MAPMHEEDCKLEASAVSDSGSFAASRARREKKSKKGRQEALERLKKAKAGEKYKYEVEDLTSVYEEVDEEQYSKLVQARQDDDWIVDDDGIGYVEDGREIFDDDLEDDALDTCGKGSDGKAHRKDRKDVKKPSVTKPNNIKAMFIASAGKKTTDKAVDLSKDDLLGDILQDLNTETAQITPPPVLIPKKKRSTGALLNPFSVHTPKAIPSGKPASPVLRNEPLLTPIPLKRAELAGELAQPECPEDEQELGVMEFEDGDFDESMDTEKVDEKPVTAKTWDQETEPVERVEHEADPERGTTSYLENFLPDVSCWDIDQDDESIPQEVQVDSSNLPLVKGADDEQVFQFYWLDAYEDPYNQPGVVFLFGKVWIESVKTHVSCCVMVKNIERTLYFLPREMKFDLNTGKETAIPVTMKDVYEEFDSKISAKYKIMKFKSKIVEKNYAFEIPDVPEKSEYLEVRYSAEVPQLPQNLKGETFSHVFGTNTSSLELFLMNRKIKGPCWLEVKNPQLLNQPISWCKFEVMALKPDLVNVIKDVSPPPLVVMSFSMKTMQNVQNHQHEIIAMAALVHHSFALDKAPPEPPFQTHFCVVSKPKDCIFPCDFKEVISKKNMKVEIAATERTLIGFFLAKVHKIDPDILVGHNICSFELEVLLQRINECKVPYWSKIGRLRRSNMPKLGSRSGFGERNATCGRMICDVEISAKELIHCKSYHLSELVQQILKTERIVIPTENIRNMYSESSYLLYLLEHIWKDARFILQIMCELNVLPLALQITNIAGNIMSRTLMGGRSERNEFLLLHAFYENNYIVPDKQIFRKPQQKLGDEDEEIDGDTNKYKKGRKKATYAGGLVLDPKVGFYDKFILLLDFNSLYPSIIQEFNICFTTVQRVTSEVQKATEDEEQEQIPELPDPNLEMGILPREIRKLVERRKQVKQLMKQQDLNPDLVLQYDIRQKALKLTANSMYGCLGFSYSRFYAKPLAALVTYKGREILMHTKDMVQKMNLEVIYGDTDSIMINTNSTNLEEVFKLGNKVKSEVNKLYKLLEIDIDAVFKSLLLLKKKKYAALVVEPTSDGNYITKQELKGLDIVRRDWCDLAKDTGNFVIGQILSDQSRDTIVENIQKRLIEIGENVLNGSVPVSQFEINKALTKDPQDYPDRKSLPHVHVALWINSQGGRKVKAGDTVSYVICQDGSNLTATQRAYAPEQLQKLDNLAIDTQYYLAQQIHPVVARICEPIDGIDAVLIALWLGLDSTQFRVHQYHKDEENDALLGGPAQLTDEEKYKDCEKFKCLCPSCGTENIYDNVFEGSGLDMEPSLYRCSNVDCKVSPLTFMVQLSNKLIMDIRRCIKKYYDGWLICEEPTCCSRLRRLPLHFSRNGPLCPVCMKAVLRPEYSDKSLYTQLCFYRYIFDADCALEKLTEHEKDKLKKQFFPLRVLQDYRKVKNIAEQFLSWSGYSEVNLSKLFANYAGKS

[5] = biological target: T2, human mitochondrial DNA polymerase γ (Homo sapiens, UniProt P54098); assay: DNA polymerase activity, human mitochondrial DNA polymerase γ; format: biochemical; conditions: FIG. 12c
T2 sequence (P54098 1-1239): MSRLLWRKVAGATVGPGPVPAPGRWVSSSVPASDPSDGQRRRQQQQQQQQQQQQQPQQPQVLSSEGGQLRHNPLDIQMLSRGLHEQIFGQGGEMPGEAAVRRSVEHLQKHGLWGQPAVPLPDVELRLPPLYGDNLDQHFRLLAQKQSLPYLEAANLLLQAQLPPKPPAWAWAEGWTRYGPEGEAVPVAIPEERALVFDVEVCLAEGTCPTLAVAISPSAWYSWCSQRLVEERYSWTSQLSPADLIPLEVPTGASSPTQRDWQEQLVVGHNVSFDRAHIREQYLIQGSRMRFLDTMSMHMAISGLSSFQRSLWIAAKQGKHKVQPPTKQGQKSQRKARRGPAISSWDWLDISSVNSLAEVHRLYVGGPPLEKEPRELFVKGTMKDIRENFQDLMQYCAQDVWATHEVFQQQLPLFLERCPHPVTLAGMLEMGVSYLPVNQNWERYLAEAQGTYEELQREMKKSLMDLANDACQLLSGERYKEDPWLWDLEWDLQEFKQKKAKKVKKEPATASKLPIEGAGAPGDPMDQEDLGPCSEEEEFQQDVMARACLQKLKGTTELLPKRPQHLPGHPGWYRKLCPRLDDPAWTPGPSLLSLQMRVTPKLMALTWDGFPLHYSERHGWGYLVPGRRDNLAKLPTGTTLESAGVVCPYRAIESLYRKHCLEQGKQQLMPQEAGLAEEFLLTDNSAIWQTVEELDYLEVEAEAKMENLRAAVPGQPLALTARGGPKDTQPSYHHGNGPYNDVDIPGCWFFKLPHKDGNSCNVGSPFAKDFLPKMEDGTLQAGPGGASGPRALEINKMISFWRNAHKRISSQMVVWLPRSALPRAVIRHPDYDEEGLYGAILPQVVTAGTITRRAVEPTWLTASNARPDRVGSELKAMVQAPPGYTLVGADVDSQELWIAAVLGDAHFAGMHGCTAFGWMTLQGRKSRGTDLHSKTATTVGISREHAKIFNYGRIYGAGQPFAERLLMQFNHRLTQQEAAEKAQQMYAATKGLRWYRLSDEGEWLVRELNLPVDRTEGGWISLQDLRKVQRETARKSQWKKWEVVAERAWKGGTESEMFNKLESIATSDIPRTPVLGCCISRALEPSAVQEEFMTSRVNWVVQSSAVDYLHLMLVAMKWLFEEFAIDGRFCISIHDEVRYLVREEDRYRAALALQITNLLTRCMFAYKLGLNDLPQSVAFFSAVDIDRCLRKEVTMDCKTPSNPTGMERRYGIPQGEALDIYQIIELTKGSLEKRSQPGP
Method: 0.1 μg of a C1 fragment was added per 10 μl. The mixed reaction solution was incubated at 37° C. for 30 minutes, then adsorbed to filter paper, dried, and washed with 5% Na2HPO4 4 times (for 10 minutes for each washing), thereafter washing twice with distilled water (DW) (for 5 minutes for each washing), and finally shaken with 100% ethanol for 5 minutes. The filter paper was then dried and the dried filter paper was contained in a vial container charged with 4 ml of a toluene cocktail, and an intake amount of ^3H was measured with a liquid scintillation counter.

[6] = test system: PpPolA; conditions: FIG. 12b
Method: A reaction solution was obtained by adding 50 mM Tris-HCl, 0.5 mM dATP, dGTP, dCTP, 5 μM dTTP, activated DNA (0.5 μg/ml), 0.8 μM [^3H]dTTP (Moravek Co.: (MT-781) Thymidine 5′-triphosphate, tetrasodium salt, [methyl ^3H]), and an enzyme solution was further added thereto, a metallic ion, an inhibitor, etc. having respective concentrations (the total amount of 10 μl). 0.1 μg of a C1 fragment was added per 10 μl. The mixed reaction solution was incubated at 37° C. for 30 minutes, then adsorbed to filter paper, dried, and washed with 5% Na2HPO4 4 times (for 10 minutes for each washing), thereafter washing twice with distilled water (DW) (for 5 minutes for each washing), and finally shaken with 100% ethanol for 5 minutes. The filter paper was then dried and the dried filter paper was contained in a vial container charged with 4 ml of a toluene cocktail, and an intake amount of ^3H was measured with a liquid scintillation counter.

[7] = biological target: T3, DNA polymerase γ (Mus musculus, UniProt P54099); conditions: already reported; cited from earlier work
T3 sequence (P54099 1-1218): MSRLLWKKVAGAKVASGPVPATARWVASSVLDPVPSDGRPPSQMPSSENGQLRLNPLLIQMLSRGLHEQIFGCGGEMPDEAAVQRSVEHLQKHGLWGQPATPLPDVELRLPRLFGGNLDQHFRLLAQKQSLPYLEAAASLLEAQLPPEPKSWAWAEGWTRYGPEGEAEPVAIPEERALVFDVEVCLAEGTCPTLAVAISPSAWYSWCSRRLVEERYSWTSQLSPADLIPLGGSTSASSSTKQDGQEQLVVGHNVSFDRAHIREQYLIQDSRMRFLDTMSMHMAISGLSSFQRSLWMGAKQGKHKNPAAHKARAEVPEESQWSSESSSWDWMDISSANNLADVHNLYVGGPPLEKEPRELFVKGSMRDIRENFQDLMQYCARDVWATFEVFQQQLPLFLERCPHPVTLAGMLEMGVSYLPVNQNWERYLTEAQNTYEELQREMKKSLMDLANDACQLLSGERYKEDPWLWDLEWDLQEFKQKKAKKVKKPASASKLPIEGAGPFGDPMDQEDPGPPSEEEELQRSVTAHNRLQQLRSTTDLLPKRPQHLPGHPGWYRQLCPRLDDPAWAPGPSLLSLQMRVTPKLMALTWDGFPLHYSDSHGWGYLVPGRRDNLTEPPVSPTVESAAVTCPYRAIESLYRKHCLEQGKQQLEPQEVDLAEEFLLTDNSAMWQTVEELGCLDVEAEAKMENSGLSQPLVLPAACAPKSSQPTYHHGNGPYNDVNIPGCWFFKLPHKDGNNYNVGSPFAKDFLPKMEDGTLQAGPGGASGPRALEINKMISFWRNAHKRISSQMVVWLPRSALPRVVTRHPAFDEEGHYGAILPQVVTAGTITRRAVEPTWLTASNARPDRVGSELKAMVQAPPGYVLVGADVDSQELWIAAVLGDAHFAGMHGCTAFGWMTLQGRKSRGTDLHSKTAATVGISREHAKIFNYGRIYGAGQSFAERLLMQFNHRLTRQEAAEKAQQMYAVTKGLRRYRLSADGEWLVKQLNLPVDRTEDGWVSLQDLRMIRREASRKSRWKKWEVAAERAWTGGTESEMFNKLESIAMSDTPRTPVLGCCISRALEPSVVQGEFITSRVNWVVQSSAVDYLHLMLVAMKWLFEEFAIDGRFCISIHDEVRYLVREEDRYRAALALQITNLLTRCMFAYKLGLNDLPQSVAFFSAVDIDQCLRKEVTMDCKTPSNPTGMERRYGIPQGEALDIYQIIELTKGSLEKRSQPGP

[8] = biological target: T4, DNA polymerase γ (Homo sapiens, UniProt P54098); conditions: at a concentration from 50 to 100 mM; reported; cited from earlier work
T4 sequence (P54098 1-1239): T2 sequence (P54098 1-1239)

[9] = test system: various DNA polymerases; conditions: reported; binds non-specifically; cited from earlier work

Compound: CCN1C(=O)C=CC1=O [NEM, N-ethylmaleimide]
- sensitivity or resistance of the enzyme to inhibitor [1]: sensitivity
- DNA polymerase activity on addition of inhibitor ([2]; in the presence at a high concentration, FIG. 11c): the activity scarcely decreased

Compound: Nc1ncnc2c1ncn2CCOCP(=O)(O)OP(=O)(O)OP(=O)(O)O [PMEApp]
- sensitivity or resistance of the enzyme to inhibitor [1]: resistance

Compound: C[C@@]1(CO)[C@H](O)CC[C@@]2(C)[C@H]1CC[C@H]1C[C@@H]3C[C@@]12CC[C@]3(O)CO [aphidicolin]
- sensitivity or resistance of the enzyme to inhibitor [1]: resistance
- DNA polymerase activity on addition of inhibitor ([2]; added at a concentration from 10 to 100 μM, FIG. 11b): the activity scarcely decreased

Compound: CCN(CC)CCCC(C)Nc1ccnc2cc(Cl)ccc12 (stereo not drawn) [chloroquine]
- inhibition of DNA polymerase activity [3]: inhibitors
- inhibition of DNA polymerase activity [4]: does not inhibit
- inhibition action to the DNA polymerase activity [2]: inhibited the activity
- inhibition action to the DNA polymerase activity [5]: an inhibition effect was not shown
- inhibition action to the DNA polymerase activity [6]: an inhibition effect was not shown
- inhibition of DNA polymerase activity [7]: does not inhibit

Compound: Cc1cn([C@H]2CC[C@@H](COP(=O)(O)OP(=O)(O)OP(=O)(O)O)O2)c(=O)[nH]c1=O [ddTTP]
- sensitivity or resistance of the enzyme to inhibitor [1]: resistance
- inhibition of DNA polymerase activity [8]: mostly inhibited
- inhibition effect on DNA polymerase activity ([2]; along with increasing concentration, FIG. 11d): a weak inhibition effect was shown
- remaining DNA polymerase activity ([2]; concentration increased to 400 mM, FIG. 11d): 50%

Compound: Cc1ccc(C(=O)Nc2ccc(S(=O)(=O)O)c3cc(S(=O)(=O)O)cc(S(=O)(=O)O)c23)cc1NC(=O)c1cccc(NC(=O)Nc2cccc(C(=O)Nc3cc(C(=O)Nc4ccc(S(=O)(=O)O)c5cc(S(=O)(=O)O)cc(S(=O)(=O)O)c45)ccc3C)c2)c1 [suramin]
- inhibition of DNA polymerase activity [9]: inhibits the activities
- inhibition of DNA polymerase activity [3]: inhibitors
- inhibition action to the DNA polymerase activity [2]: inhibited the activity
